From ChEMBL document CHEMBL3822423 (J Med Chem, 2016)
Converted amounts (≈) assume the structure as drawn. The source made the active and inactive calls. The rule behind the calls is not given here.

How the values were obtained:
Type in all cases: functional
[1] = test system: Micrococcus luteus; test: Antibacterial activity against Micrococcus luteus ATCC 4698 after 18 to 24 hrs; details: NCTC 2665
[2] = test system: Staphylococcus aureus; test: Antibacterial activity against methicillin-resistant Staphylococcus aureus N315 after 18 to 24 hrs
[3] = test system: Staphylococcus aureus; test: Antibacterial activity against Staphylococcus aureus ATCC 25923 after 18 to 24 hrs
[4] = test system: Bacillus spizizenii; test: Antibacterial activity against Bacillus subtilis ATCC 6633 after 18 to 24 hrs
[5] = test system: Pseudomonas aeruginosa; test: Antibacterial activity against Pseudomonas aeruginosa ATCC 9027 after 18 to 24 hrs
[6] = test system: Escherichia coli; test: Antibacterial activity against Escherichia coli ATCC 25922 after 18 to 24 hrs
[7] = (§1) Antibacterial activity against Eberthella typhosa ATCC 14028 after 18 to 24 hrs
[8] = test system: Bacillus; test: Antibacterial activity against Bacillus proteus ATCC 13315 after 18 to 24 hrs
[9] = test system: Eberthella typhosa; test: as §1

Structure (SMILES) | MIC [1] [µg/mL] | MIC [2] | MIC [3] | MIC [4] | MIC [5] | MIC [6] | MIC [7] [µg/mL] | MIC [8] | MIC [9]
O=C(N[C@H](CO)[C@H](O)c1ccc([N+](=O)[O-])cc1)C(Cl)Cl [CHLORAMPHENICOL] | 13.3 (≈ 41.2 µM) | 21.3 µg/mL (≈ 65.9 µM) | 16 µg/mL (≈ 49.5 µM) | 26.6 µg/mL (≈ 82.3 µM) | 32 µg/mL (≈ 99 µM) | 13.8 µg/mL (≈ 42.7 µM) | 26.6 (≈ 82.3 µM) | 32 µg/mL (≈ 99 µM) | 
CCn1cc(-c2csc(N)n2)c(=O)c2cc(F)cc(F)c21 | 256 (≈ 833 µM) | inactive | inactive | inactive | inactive | 64 µg/mL (≈ 208 µM) |  | inactive | inactive
CCn1cc(-c2csc(N)n2)c(=O)c2cc(F)c(N3CCOCC3)cc21 | 13.3 (≈ 35.5 µM) | 32 µg/mL (≈ 85.5 µM) | 0.8 µg/mL (≈ 2.14 µM) | 18.7 µg/mL (≈ 49.9 µM) | 10.7 µg/mL (≈ 28.6 µM) | 6 µg/mL (≈ 16 µM) | 14.7 (≈ 39.3 µM) | 1.7 µg/mL (≈ 4.54 µM) | 
CCn1cc(C(C)=O)c(=O)c2cc(N3CCOCC3)c(Cl)cc21 | 53.3 (≈ 159 µM) | 128 µg/mL (≈ 382 µM) | inactive | inactive | 42.7 µg/mL (≈ 128 µM) | inactive | 37.3 (≈ 111 µM) | 13.3 µg/mL (≈ 39.7 µM) | 
CCn1cc(-c2csc(N)n2)c(=O)c2cc(F)c(N3CCNCC3)cc21 | 64.2 (≈ 172 µM) | 32.1 µg/mL (≈ 86 µM) | 16 µg/mL (≈ 42.8 µM) | 10.7 µg/mL (≈ 28.7 µM) | 4 µg/mL (≈ 10.7 µM) | 16 µg/mL (≈ 42.8 µM) | 10.7 (≈ 28.7 µM) | 2 µg/mL (≈ 5.36 µM) | 
CCn1cc(-c2csc(N)n2)c(=O)c2cc(F)c(N3CCCC3)cc21 | 107 (≈ 298 µM) | 17.3 µg/mL (≈ 48.3 µM) | 32 µg/mL (≈ 89.3 µM) | 53.3 µg/mL (≈ 149 µM) | 42.7 µg/mL (≈ 119 µM) | 9.3 µg/mL (≈ 25.9 µM) | 42.7 (≈ 119 µM) | 128 µg/mL (≈ 357 µM) | 
CCn1cc(-c2csc(N)n2)c(=O)c2cc(N3CCN(C(=O)OC(C)(C)C)CC3)c(Cl)cc21 | 53.2 (≈ 109 µM) | 32 µg/mL (≈ 65.3 µM) | 128 µg/mL (≈ 261 µM) | 21.3 µg/mL (≈ 43.5 µM) | 8 µg/mL (≈ 16.3 µM) | 10.7 µg/mL (≈ 21.8 µM) |  | 32 µg/mL (≈ 65.3 µM) | inactive
